Marks after values point to notes of the source that are not given here.
Key:
[1] = system: developing mouse brain; assay: BrdU labeling in developing brain after injection of pregnant mouse; type: in vivo; conditions: peptide 0.1 mg/Kg into pregnant mouse; BrdU 24 hr later
Description: After 1 hr the embryo was isolated and fixed.
Embryonic neuroepithelial cells have one of two fates: (1) to continue proliferation and migration up and down from the ventricular zone up to the cortical plate, or (2) to quit the proliferative cycle and initiate terminal differentiation. The balance between these two processes determines the number of proliferating neuronal progenitors as well as the thickness of the cortical plate where post-mitotic neurons accumulate (see scheme at FIG. 10).

[2] = system: CD34^+ cells; assay: Cell phenotyping of CD34+ liquid cultures by flow cytometry (CD34, CD33, CD15, CD41); type: cell-based, human; conditions: day 14; seeded at 50,000 cells/well; ARP 2 nM, cortisol 1.2 μM, ASP 2 nM, SCF 50 ng/ml, AS1 20 pM, PBAN 2 nM
Description: Cell Source: UCB was collected, following informed consent of the parents and with the approval of the Sourasky Medical Center Ethics Committee, as previously described [Grisaru et al. (1999a) Am. J. Obstet. Gynecol, 180, 1240–1243]. Following 1:1 (v/v) dilution in Iscove's modified Dulbecco medium (IMDM, Beit Haemek, Israel), mononuclear cells were separated using 3% gelatin (Difco, Detroit, Mich.) and Ficoll-Hypaque gradients (<1.077 g/ml; Pharmacia, Uppsala, Sweden) [Pick et al. (1998) Br. J. Haematol. 103, 639–50]. CD34^+ cells were enriched using CD34 immunoglobulin-coated magnetic beads (CD34 progenitor cell selection system, Dynal, Norway).CD34^+ cells analysis was performed by flow cytometry (Becton Dickinson Immunocytochemistry System Inc., San Jose, Calif.), using CD34-PE (Becton Dickinson Immunocytometry System, Inc.) and CD45-FITC (Dako, Glostrup, Denmark) monoclonal antibodies. […] Liquid Cultures: UCB CD34^+ cells were set for liquid cultures at a concentration of 10^5/mL in IMDM, containing 10% autologous plasma, 2 mM L-glutamine (Sigma Chemical Co., St Louis, Mo.), penicillin ([…]), streptomycin ([…]), amphotericin B (2×10^−5 M) (Sigma Chemical Co.), and heparin (20 IU/mL, Gibco, Grand Island, N.Y.), all in a fully humidified atmosphere at 37° C. and 5% CO2. The following elements were added where noted: • 1. […] Endothlial Growth factors: Epidermal growth factor (EGF 10 ng/ml, Sigma Chemical Co.), basic Fibroblast growth factor (bFGF 20 ng/ml, Sigma Chemical Co.) incubated in a serum free medium (SFM) for 48 hr. • 3. Stress mimicking conditions: Hydrocortisone sodium succinate (Abic Ltd., Netanya, Israel) at concentrations equivalent to normal, intermediate and stress serum cortisol levels (0.1, 0.6 and 1.2 μM, respectively (De Vroede et al., Arch. Des. […] Antisense oligonucleotides: 3′-terminal 2′-O-Methylated 15- and 20-mer oligodeoxynucleotides in the antisense (AS) orientation, targeted against the common sequence domain in human AChEmRNA and BuChE mRNA, as control, […], as detailed elsewhere [Grisaru et al. (1999b) Mol. Cell. Biol. 19, 788–95]. • 5. AChE C-terminal peptides: The following C-terminal peptides of the AChE synaptic (ASP, also denoted SEQ ID: No. 2) and readthrough (ARP, also denoted SEQ ID: No. 1) isoforms were synthesized using a 433A peptide synthesizer (PE Applied Biosystems, Inc., Norwalk, Conn.). • ASP: 1-[…]-40, also denoted as SEQ ID: No. 2. • ARP: 1-[…]-26, also denoted as SEQ ID: No. 1.
Culture Analyses: Twenty-four hr liquid cultures served for cytochemical staining, in situ hybridization, and cell proliferation assay by 5-bromo-2′-deoxy-Uridine (BrdU) incorporation [Grisaru et al. (1999b) id ibid.]. Twenty-eight day liquid cultures were sampled every 6–8 days for viable cell counting (using trypan blue dye exclusion), cell phenotyping (CD34^+, CD33^+ and CD41^+ quantification using flow cytometry, with CD34-PE, CD33-FITC (Immunotech/Coulter, Hialeah, Fla.), CD41-FITC (Immunoquality Products, Groningen, Netherlands) and CD45-FITC monoclonal antibodies), and growth of progenitor colony (granulocyte-macrophage and megakaryocytic), using previously described techniques (Pick et al. (1998) id ibid.). […] 11, 1049–57]. Nuclear staining w with 4′,6-diamidino-2- phenylindole [DAPI, see e.g., Peterson et al. (1999) Genetics 152, 427–439].

Q: Which “neuronal proliferation (BrdU labeled nuclei) in embryonic brain” value [1] does the source give for “ASP (DTLDEAERQWKAEFHRWSSYMVHWKNQFDHYSKQDRCSDL)” here?
A: Its value is “minor positive effect”.

Q: What about the “CD33^+ (early myeloids)” value [2] of the same substance?
A: Its value is 10.0 cells per culture × 10^−3.

Q: And the “CD33^+ and CD15^+ (total myeloids)” value [2]?
A: Its value is 13.0 cells per culture × 10^−3.

Q: What about the “CD34^+ (early progenitors)” value [2] of the same substance?
A: The value was 7.2 cells per culture × 10^−3.

Q: And the “CD41^+ (megakaryocytes)” value [2]?
A: Its value is 4.6^b cells per culture × 10^−3.

Reference: patent US7067486B2, “Acetylcholinesterase-derived peptides and uses thereof” (priority 1999, dated 2006)
